Experimental data published in patent US5124352A, “Fat emulsions containing isocarbacyclin” (Teijin Limited, priority 1985, dated 1992).

Key:
human platelets = test: Time course of the formation of cyclic AMP using human platelets (production capability and maintenance of cyclic AMP); type: cell-based; settings: for Relative value (C-AMP production): first time point of the series = 100; for C-AMP production: human platelets, 37° C.
Procedure: The time course of the formation of cyclic AMP by the fat emulsion in the invention was determined using human platelets so as to compare with the time course of the compound which was not emulsified in fat. Human blood 50 ml was collected using 1 part of 3.8 % sodium citrate for 9 parts of blood. The blood sample was centrifuged at 1300 rpm for 10 minutes. The upper layer was taken out as PRP (platelet-rich plasma) and centrifuged at 3000 rpm for 20 minutes. The precipitate thus obtained (platelets) was suspended in 2 ml of Tris buffered solution-saline-glucose-EDTA (TSG-EDTA) (pH 7.4).
The fat emulsion, which had previously been transferred in a plastic tube containing 350 μl of TSG-EDIA and 50 μl of platelet suspension and incubated at 37° C., was supplemented with 50 μl of 5mM isobutylmethylxanthin dissolved in saline, and 2 minutes later, reactions were stopped with 0.5 ml of 10% trichloroacetic acid (TCA). The cells were destroyed by thawing the lyophilized specimen in order to release intracellular cyclic AMP. After removal of TCA with watersaturated ether, the content of C-AMP was determined by radio immunoassay technique.

[1] = tested on: PRP (ADP platelet agglutination); test: ADP platelet agglutination inhibitory action by PRP; type: cell-based; design: reference not given here; settings: 37° C., 0.025 μm filtrate
Procedure: Fifty (50) μl of the fat emulsion obtained in Examples 1 and 2 was transferred into 950 μl of saline or 2 % bovine serum albumin (BSA) and incubated at 37° C. for 1, 3, and 10 minutes. Next, the ADP platelet agglutination inhibitory action by PRP was determined using the filtrate which had been passed through a 0.025 μm filter. A known quantity of the dilution before filtration was added to PRP and incubated at 37° C. for 1 minute. Thereafter, ADP agglutination was induced to construct a dose-response curve. The platelet agglutination inhibitory action was calculated from this curve.

Row | Compound | Relative value (C-AMP production) (human platelets; Time 30 min) [%] | C-AMP production (human platelets; Time 30 min) [pico mol] | Relative value (C-AMP production) (human platelets; Time 60 min) [%] | C-AMP production (human platelets; Time 60 min) [pico mol] | Relative value (C-AMP production) (human platelets; Time 120 min) [%] | C-AMP production (human platelets; Time 120 min) [pico mol] | Platelet agglutination inhibitory action ([1]; 2% BSA, incubation time 1 min) [%] | Platelet agglutination inhibitory action ([1]; 2% BSA, incubation time 10 min) [%] | Platelet agglutination inhibitory action ([1]; Saline, incubation time 10 min) [%] | Relative value (C-AMP production) (human platelets; Time 0 min) [%] | C-AMP production (human platelets; Time 0 min) [pico mol] | Relative value (C-AMP production) (human platelets; Time 10 min) [%] | C-AMP production (human platelets; Time 10 min) [pico mol]
1 | COC(=O)CCCC=C1OC2CC(O)C(C=CC(O)C3CCCC3)C2C1F (centres unmarked) [Compound (III), 7-fluoro-16,17,18,19, 20-pentanor-15-cyclopentylprostacyclin methyl ester] | 100 | 100 | 90 | 90 | 40 | 40 | – | – | – | – | – | – | –
2 | CCCCCC(O)C=CC1C(O)CC2C=C(CCCCC(=O)O)CC21 (stereo not drawn) [Compound (I), 9(0)-methano-Δ^6(9α) -PGI1] | 63 | 200 | 31 | 100 | – | – | 100.1 | 107.7 | 41.1 | 100 | 320 | – | –
3 | CCCCCC(O)C=CC1C(O)CC2C=C(CCCCC(=O)O)CC21 (centres unmarked) [Compound (II), 16,17,18,19,20-pentanor-15-pentylisocarbacyclin] | 74 | 320 | 27 | 120 | – | – | – | – | – | – | – | 100 | 430
4 | CCCCCC(O)C=CC1C(O)CC2C=C(CCCCC(=O)OC)CC21 (centres unmarked) [(IV), isocarbacyclin methyl ester] | – | – | – | – | – | – | 65.4 | 56.2 | – | – | – | – | –
